Common to all, as to type: cell-based, Klebsiella pneumoniae
The subject of experiment [1] is K. pneumoniae IMT40061. As to the kind of experiment: microbe, parasite or virus in culture. On the procedure:
(§1) Three different strains of K. pneumoniae were investigated in this study which were originally isolated from a human, a pig and a dog (Table 2) and characterized in previous studies ([Krieger et al., 2021]; [Krieger et al., 2022]). Minimum inhibitory concentration (MIC) values were determined according to EUCAST guidelines by microdilution test and are shown in Supplementary Table S1.
(§2) Table S1 Minimum inhibitory concentration (MIC) values of the three K. pneumoniae strains,
(§3) determined according to EUCAST guidelines by microdilution test.
(§4) MIC [µg/mL] of indicated antibiotics

The subject of experiment [2] is K. pneumoniae 17349. Kind of experiment: microbe, parasite or virus in culture. On the procedure: as §1, §2, §3, §4
Experiment [3] concerns K. pneumoniae 42KC-108224-1. As to the kind of experiment: microbe, parasite or virus in culture. As for the experimental part: as §1, §2, §3, §4
In experiment [4] the test system is all three K. pneumoniae strains. Kind of experiment: crystal violet assay, biofilm formation, statements on all three strains. To be noted: for biofilm mass, % of the untreated control: all three strains, concentration not given. As for the experimental part:
(§5) To quantify biofilm formation, the crystal violet assay was done as described previously ([Sager et al., 2015]). Specifically, bacteria were grown in 10 mL BHI broth for 18 h at 37°C on a shaking platform (120 rpm). Subsequently 100 μL of a 1:100 dilution of this overnight culture in BHI was transferred to 96-well plates and incubated for 24 h at 37°C. Wells with BHI broth only were used as blank. Five replicates were investigated per strain. After incubation the suspension was discarded, plates were washed three times with tap water and air-dried. Subsequently, 100 μL of 1% crystal violet (T123.1, Th. Geyer GmbH & Co. KG, Renningen, Germany) in distilled water was added to each well and incubated for 15 min at room temperature before rinsing the plates four times with tap water and air-drying them again. One hundred μL of 99% ethanol were added to each well for 15 min at room temperature to dissolve the remaining crystal violet. Subsequently, the optical density at 540 nm (OD540) was measured using the BioTek Synergy H1 microplate reader to quantify biofilm mass remaining in the wells. OD values of the blank were subtracted from all the samples. Each experiment was conducted three times.
(§6) To determine the effect of the AMPs on biofilm formation of K. pneumoniae, a standardized bacterial suspension and serial dilutions of antimicrobial agents were incubated together as conducted for determination of planktonic growth. After incubation the crystal violet assay was performed as described above. The percentage of biofilm formation was calculated based on the growth control. The experiment was conducted at least three times.

Experiment [5] has as its system K. pneumoniae 42KC-108224-1. As to the kind of experiment: fluorescence assay on mature biofilms (SYTO 9 / propidium iodide). Conditions: 24 h treatment of mature biofilm; strongest reduction, concentration not given. As for the experimental part:
The proportion of living and dead bacteria was determined using the fluorescence assay FilmTracer™ LIVE/DEAD biofilm viability kit (L10316, Life Technologies GmbH, Darmstadt, Germany). A bacterial count of 2 × 10^7 CFU/mL was inoculated in 50% BHI broth, 100 μL were added to a 96-well plate in duplicate and plates were incubated for 22 h at 37°C. Wells containing only BHI broth were used as blank. After incubation, the supernatant was discarded and plates were washed three times with sterile PBS. […] After incubation for 24 h at 37°C and washing three times with sterile PBS, 50 μL filter-sterilized water containing 0.15 μL each of SYTO™ 9 stain and propidium iodide stain was added to each well. Plates were incubated for 20 min at room temperature in the dark. The staining solution was discarded and the plates were washed three times with sterile PBS. The fluorescence intensity of the SYTO™ 9 stain (λex = 470 nm, λem = 500 nm) and the propidium iodide stain (λex = 490 nm, λem = 635 nm) were measured on a BioTek Synergy H1 microplate reader and corrected for the blank values. The percentage of fluorescence intensity was calculated based on the negative control. The SYTO™ 9/propidium iodide ratio was calculated. The experiment was conducted at least three times.

For experiment [6], the system named is K. pneumoniae IMT40061. As to the kind of experiment: crystal violet assay, biofilm formation upon AMP treatment. To be noted: 16 μg/mL; 22 h, 37°C, 50% BHI; mean, n ≥ 3. As for the experimental part: as §5, §6
Experiment [7] deals with K. pneumoniae 42KC-108224-1. Described as above. Conditions: for biofilm mass (crystal violet), percentage of the growth control: 16 μg/mL, 22 h, 37°C, 50% BHI, mean, n ≥ 3; for biofilm formation inhibited to: concentration not given. As for the experimental part: as §5, §6
For experiment [8], the system named is K. pneumoniae 17349. The description is as above. Conditions: 22 h, 37°C, 50% BHI, mean, n ≥ 3. On the procedure:
as §5, §6

For experiment [9], the system named is K. pneumoniae 17349. As to the kind of experiment: resazurin assay, metabolic activity of biofilm. Conditions: 16 μg/mL; 22 h co-incubation, 37°C, 50% BHI; n ≥ 3. On the procedure: Biofilm viability was quantified using the resazurin assay as previously described ([Fontoura et al., 2023]) with minor modifications. A standardized bacterial suspension and serial dilutions of antimicrobial agents were incubated together as conducted for determination of planktonic growth and biofilm formation. After incubation, the bacterial suspension was discarded and plates were washed three times with sterile PBS. One hundred microliters of sterile PBS containing 2 μL of resazurin (6.75 mg/mL, in sterile PBS; R7017-1G, Merck KGaA, Darmstadt, Germany) were added per well. After an incubation of 3–5 h at 37°C fluorescence intensity was measured with an excitation wavelength (λex) of 528 nm and an emission wavelength (λem) of 645 nm by BioTek Synergy H1 microplate reader. Measured values of the blank were subtracted from all the samples. The percentage of metabolic activity was calculated based on the growth control. The experiment was conducted at least three times.

Setting [10] is: Klebsiella pneumoniae, IMT40061, EUCAST guidelines, microdilution test, read-out: MIC.
The mark [11] stands for this setting: Klebsiella pneumoniae, 42KC1082241.
[12] abbreviates: Klebsiella pneumoniae, 17349, EUCAST guidelines, microdilution test, read-out: MIC.
Where [13] appears, read: Klebsiella pneumoniae, 42KC1082241, EUCAST guidelines, microdilution test, read-out: MIC.
Setting [14] is: EUCAST guidelines, microdilution test.

In brackets after ≈: the same amount, converted by molar mass. Where two headings read alike, the source gives them in different places. A value given as a limit tells only on which side of the number the result lay.

Take `C[C@H]1COc2c(N3CCN(C)CC3)c(F)cc3c(=O)c(C(=O)O)cn1c23` [Levofloxacin]: the MIC is over 8 µg/mL with K. pneumoniae IMT40061 [1] (setting [10]); under 0.0625 µg/mL in the experiment on K. pneumoniae 17349 [2] (Klebsiella pneumoniae, 17349); under 0.0625 µg/mL in [3] (setting [11]).
As for `C[C@@H](O)[C@H]1C(=O)N2C(C(=O)O)=C(S[C@@H]3CN[C@H](C(=O)N(C)C)C3)[C@H](C)[C@H]12` [Meropenem], the MIC against K. pneumoniae IMT40061 [1] (Klebsiella pneumoniae, IMT40061) is under 0.125 µg/mL; with K. pneumoniae 17349 [2] (Klebsiella pneumoniae, 17349), under 0.125 µg/mL; in [3] (setting [11]), under 0.125 µg/mL.
As for `COc1c(N2C[C@@H]3CCCN[C@@H]3C2)c(F)cc2c(=O)c(C(=O)O)cn(C3CC3)c12` [Moxifloxacin], the MIC in the experiment on K. pneumoniae IMT40061 [1] (setting [10]) is over 4 µg/mL; with K. pneumoniae 17349 [2] (setting [12]), 0.25 µg/mL (≈ 0.623 µM); in [3] (setting [13]) it was 0.0625 µg/mL (≈ 0.156 µM).
As for `CCN1CCN(C(=O)N[C@@H](C(=O)N[C@@H]2C(=O)N3[C@@H]2SC(C)(C)[C@@H]3C(=O)O)c2ccccc2)C(=O)C1=O` [Piperacillin], the MIC in the experiment on K. pneumoniae IMT40061 [1] (setting [10]) was over 64 µg/mL; with K. pneumoniae 17349 [2] (setting [12]), 2 µg/mL (≈ 3.86 µM); in experiment [3] (setting [13]) it was 4 µg/mL (≈ 7.73 µM).
`NC[C@H]1O[C@H](O[C@H]2[C@H](O)[C@@H](O[C@H]3O[C@H](CO)[C@@H](O)[C@H](N)[C@H]3O)[C@H](N)C[C@@H]2N)[C@H](N)C[C@@H]1O` [Tobramycin]: the results for the MIC (in the experiment with K. pneumoniae IMT40061 [1] (setting [10]); in the experiment on K. pneumoniae 17349 [2] (setting [12]); in [3] (setting [13])) were 4 µg/mL (≈ 8.56 µM), under 0.125 µg/mL and 0.25 µg/mL (≈ 0.535 µM), respectively.
For Ampicillin/Sulbactam, the results for the MIC (against K. pneumoniae IMT40061 [1] (setting [14]); with K. pneumoniae 17349 [2] (setting [14]); in experiment [3] (setting [14])) were > 32/4, 1/4 and 8/4, respectively.
As for “GIINTLQKYYCRVRGGRCAVLSCLPKEEQIGKCSTRGRKCCRRKK [hbD3, Human defensin, purchased from PeptaNova GmbH]”, the “biofilm mass, % of the untreated control” value in experiment [4] is given as “less than 40%”. The “biofilm mass reduced to” value in experiment [4] (concentration and strain not given) is reported as at most 28%.
In the case of “KRFRIRVRV-NH2 [compound 1037, Synthetic antimicrobial peptide]”, the “viable biofilm mass (SYTO™ 9)” value in [5] came out at 43%. Moreover, the “biofilm mass (crystal violet), percentage of the growth control” value in the experiment with K. pneumoniae IMT40061 [6] is given as 67%; in [7], 53%.
“LLGDFFRKSKEKIGKEFKRIVQRIKDFLRNLVPRTES-OH [LL-37, Human cathelicidin, purchased from GENAXXON bioscience GmbH]”: the “biofilm mass (crystal violet), percentage of the growth control” value is 140% in the experiment on K. pneumoniae 17349 [8] (0.5 μg/mL) and 13% with K. pneumoniae 17349 [8] (16 μg/mL). For the same molecule, the “biofilm mass, % of the untreated control” value in [4] is “less than 40%”. For the same molecule, in the experiment with K. pneumoniae 17349 [9], the “metabolic activity of the biofilm (resazurin), percentage of the growth control” value was found to be 30%.
Take Piperacillin/Tazobactam: the MIC was > 64/4 against K. pneumoniae IMT40061 [1] (setting [14]), 1/4 against K. pneumoniae 17349 [2] (setting [14]) and 1/4 in [3] (setting [14]).
For “VDKPPYLPRPRPPROIYNO-NH2 [Onc72, Insect-derived proline-rich AMP, derivate of Oncopeltus antibacterial peptide 4]”, in [5], the “viable biofilm mass (SYTO™ 9)” value worked out at 51%. For the same molecule, in experiment [7], the “biofilm mass (crystal violet), percentage of the growth control” value is given as 36% and the “biofilm formation inhibited to” value is on record as 36%.
As for “VDKPPYLPRPRPPRrIYNr-NH2 [Onc112, Insect-derived proline-rich AMP, derivate of Oncopeltus antibacterial peptide 4]”, the “viable biofilm mass (SYTO™ 9)” value in experiment [5] came out at 55%. Moreover, in experiment [7], the “biofilm mass (crystal violet), percentage of the growth control” value came to 26% and the “biofilm formation inhibited to” value is given as 26%.

Values taken from article PMC12021911, “Comparative evaluation of antimicrobial peptides: effect on formation, metabolic activity and viability of Klebsiella pneumoniae biofilms” (Frontiers in Microbiology, 2025).
